Assay: Kinetic study: plasma kinetics of TMC278 after single IM or SC injection of a nanosuspension;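 also: healthy male beagle dogs injected in both biceps femoris muscles (IM) or both thoracal sides (SC), total volume 0.2 mL/kg, drug measured in plasma from blood samples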
Assay type: in vivo, male beagle dogs
Details: for AUC0-312 h / AUC0-696 h / AUC0-2208 h / Cmax / Tmax / plasma concentration of TMC278: single IM 5 mg eq./kg TMC278.HCl nanosuspension
Description: Six healthy male beagle dogs with body weights ranging from 8 to 16 kg at the start of the study, were used. Each dog was identified by an ear tattoo number. Two dogs were dosed intramuscularly (IM) in the left and right m. biceps femoris (treatment group A). […] Two dogs were dosed subcutaneously (SC) in the left and right thoracal region. The injection volume was 2×0.1 ml/kg in all treatment groups. A 20 G needle was used.
Blood samples of 3 ml were taken from the left jugular vein from all dogs on day 0 at 0 h (predose), 20 min, 1 h, 3 h, 8 h and 24 h post-dose and further on days 2, 3, 6, 8, 10, 13, 16, 20, 23, 27, 29, 36, 43, 50, 57, 64, 71, 78, 85 and 92 at approximately 8 AM. Blood samples were placed on EDTA, EDTA Vacuette Greiner, Cat. No. 454086, Greiner Labortechnik N.V.). Within 2 h of blood sampling, samples were centrifuged at room temperature at about 1900×g for 10 minutes to allow plasma separation. Plasma was immediately transferred into a second tube and stored in the freezer within 2 hours after the start of centrifugation.

**Q.** Which results are given for `Cc1cc(/C=C/C#N)cc(C)c1Nc1ccnc(Nc2ccc(C#N)cc2)n1.Cl` [TMC278.HCl]?
**A.** blood plasma levels after injection (in words) (injectable formulation of nanonised substance, 5 mg/kg, male beagle dogs): stable blood plasma levels during a prolonged period of time; AUC0-312 h (dog 19072): 15000 ng·h/mL; AUC0-696 h (dog 19072): 20300 ng·h/mL; AUC0-2208 h (dog 19072): 27400 ng·h/mL; Cmax (dog 19072): 85.6 ng/mL; Tmax (dog 19072): 48 h; plasma concentration of TMC278 (dog 19072, 0 h (d0, predose)): <1.00 ng/mL; plasma concentration of TMC278 (dog 19072, 1 h): 7.80 ng/mL; plasma concentration of TMC278 (dog 19072, 3 h): 14.7 ng/mL; plasma concentration of TMC278 (dog 19072, 8 h): 32.2 ng/mL; plasma concentration of TMC278 (dog 19072, 24 h (d1)): 50.1 ng/mL; plasma concentration of TMC278 (dog 19072, 48 h (d2)): 85.6 ng/mL; plasma concentration of TMC278 (dog 19072, 72 h (d3)): 47.5 ng/mL; plasma concentration of TMC278 (dog 19072, 144 h (d6)): 48.3 ng/mL; plasma concentration of TMC278 (dog 19072, 192 h (d8)): 46.8 ng/mL; plasma concentration of TMC278 (dog 19072, 240 h (d10)): 55.7 ng/mL; plasma concentration of TMC278 (dog 19072, 312 h (d13)): 27.0 ng/mL; plasma concentration of TMC278 (dog 19072, 384 h (d16)): 17.0 ng/mL; plasma concentration of TMC278 (dog 19072, 480 h (d20)): 13.7 ng/mL; plasma concentration of TMC278 (dog 19072, 648 h (d27)): 7.91 ng/mL; plasma concentration of TMC278 (dog 19072, 696 h (d29)): 10.2 ng/mL; plasma concentration of TMC278 (dog 19072, 864 h (d36)): 6.18 ng/mL; plasma concentration of TMC278 (dog 19072, 1032 h (d43)): 6.32 ng/mL; plasma concentration of TMC278 (dog 19072, 1200 h (d50)): 4.56 ng/mL; plasma concentration of TMC278 (dog 19072, 1368 h (d57)): 4.73 ng/mL; plasma concentration of TMC278 (dog 19072, 1536 h (d64)): 4.47 ng/mL; plasma concentration of TMC278 (dog 19072, 1704 h (d71)): 3.38 ng/mL; plasma concentration of TMC278 (dog 19072, 1872 h (d78)): 3.12 ng/mL; plasma concentration of TMC278 (dog 19072, 2040 h (d85)): 3.20 ng/mL; plasma concentration of TMC278 (dog 19072, 2208 h (d92)): 2.96 ng/mL; AUC0-312 h (dog 19080): 20900 ng·h/mL; AUC0-696 h (dog 19080): 30500 ng·h/mL; AUC0-2208 h (dog 19080): 39900 ng·h/mL; Cmax (dog 19080): 105 ng/mL; Tmax (dog 19080): 48 h; plasma concentration of TMC278 (dog 19080, 0 h (d0, predose)): <1.00 ng/mL; plasma concentration of TMC278 (dog 19080, 1 h): 7.19 ng/mL; plasma concentration of TMC278 (dog 19080, 3 h): 16.3 ng/mL; plasma concentration of TMC278 (dog 19080, 8 h): 27.1 ng/mL; plasma concentration of TMC278 (dog 19080, 24 h (d1)): 69.8 ng/mL; plasma concentration of TMC278 (dog 19080, 48 h (d2)): 105 ng/mL; plasma concentration of TMC278 (dog 19080, 72 h (d3)): 69.5 ng/mL; plasma concentration of TMC278 (dog 19080, 144 h (d6)): 62.3 ng/mL; plasma concentration of TMC278 (dog 19080, 192 h (d8)): 65.8 ng/mL; plasma concentration of TMC278 (dog 19080, 240 h (d10)): 82.2 ng/mL; plasma concentration of TMC278 (dog 19080, 312 h (d13)): 45.8 ng/mL; plasma concentration of TMC278 (dog 19080, 384 h (d16)): 31.9 ng/mL; plasma concentration of TMC278 (dog 19080, 480 h (d20)): 25.5 ng/mL; plasma concentration of TMC278 (dog 19080, 648 h (d27)): 14.4 ng/mL; plasma concentration of TMC278 (dog 19080, 696 h (d29)): 18.8 ng/mL; plasma concentration of TMC278 (dog 19080, 864 h (d36)): 11.4 ng/mL; plasma concentration of TMC278 (dog 19080, 1032 h (d43)): 8.18 ng/mL; plasma concentration of TMC278 (dog 19080, 1200 h (d50)): 5.68 ng/mL; plasma concentration of TMC278 (dog 19080, 1368 h (d57)): 5.08 ng/mL; plasma concentration of TMC278 (dog 19080, 1536 h (d64)): 4.43 ng/mL; plasma concentration of TMC278 (dog 19080, 1704 h (d71)): 3.90 ng/mL; plasma concentration of TMC278 (dog 19080, 1872 h (d78)): 3.20 ng/mL; plasma concentration of TMC278 (dog 19080, 2040 h (d85)): 4.00 ng/mL; plasma concentration of TMC278 (dog 19080, 2208 h (d92)): 2.81 ng/mL; AUC0-312 h (mean of 2 dogs): 18000 ng·h/mL; AUC0-696 h (mean of 2 dogs): 25400 ng·h/mL; AUC0-2208 h (mean of 2 dogs): 33600 ng·h/mL; Cmax (mean of 2 dogs): 95.3 ng/mL; Tmax (mean of 2 dogs): 48 h; plasma concentration of TMC278 (mean of 2 dogs, 0 h (d0, predose)): <1.00 ng/mL; plasma concentration of TMC278 (mean of 2 dogs, 1 h): 7.50 ng/mL; plasma concentration of TMC278 (mean of 2 dogs, 3 h): 15.5 ng/mL; plasma concentration of TMC278 (mean of 2 dogs, 8 h): 29.7 ng/mL; plasma concentration of TMC278 (mean of 2 dogs, 24 h (d1)): 60.0 ng/mL; plasma concentration of TMC278 (mean of 2 dogs, 48 h (d2)): 95.3 ng/mL; plasma concentration of TMC278 (mean of 2 dogs, 72 h (d3)): 58.5 ng/mL; plasma concentration of TMC278 (mean of 2 dogs, 144 h (d6)): 55.3 ng/mL; plasma concentration of TMC278 (mean of 2 dogs, 192 h (d8)): 56.3 ng/mL; plasma concentration of TMC278 (mean of 2 dogs, 240 h (d10)): 69.0 ng/mL; plasma concentration of TMC278 (mean of 2 dogs, 312 h (d13)): 36.4 ng/mL; plasma concentration of TMC278 (mean of 2 dogs, 384 h (d16)): 24.5 ng/mL; plasma concentration of TMC278 (mean of 2 dogs, 480 h (d20)): 19.6 ng/mL; plasma concentration of TMC278 (mean of 2 dogs, 648 h (d27)): 11.2 ng/mL; plasma concentration of TMC278 (mean of 2 dogs, 696 h (d29)): 14.5 ng/mL; plasma concentration of TMC278 (mean of 2 dogs, 864 h (d36)): 8.79 ng/mL; plasma concentration of TMC278 (mean of 2 dogs, 1032 h (d43)): 7.25 ng/mL; plasma concentration of TMC278 (mean of 2 dogs, 1200 h (d50)): 5.12 ng/mL; plasma concentration of TMC278 (mean of 2 dogs, 1368 h (d57)): 4.91 ng/mL; plasma concentration of TMC278 (mean of 2 dogs, 1536 h (d64)): 4.45 ng/mL; plasma concentration of TMC278 (mean of 2 dogs, 1704 h (d71)): 3.64 ng/mL; plasma concentration of TMC278 (mean of 2 dogs, 1872 h (d78)): 3.16 ng/mL; plasma concentration of TMC278 (mean of 2 dogs, 2040 h (d85)): 3.60 ng/mL; plasma concentration of TMC278 (mean of 2 dogs, 2208 h (d92)): 2.89 ng/mL
